What was measured:
A549 = experiment: Combined use with combination drug, matrix study, Bliss Independence model (Cell Titer Glo, 7 days); assay type: cell-based
Method: (§1) DLD-1 colorectal adenocarcinoma cells, DLD-1 BRCA2 (-/-) colorectal adenocarcinoma cells, SHP-77 human small cell lung cancer cells, NCI-H82 human small cell lung cancer cells, LNCAP prostate cancer cells, KURAMOCHI human ovarian cancer cells, A2780 human ovarian cancer cells, and NCI-H23 non-small cell lung cancer cells were cultured in a 1640 medium containing 10% fetal bovine serum. SKOV3 human ovarian cancer cells were cultured in a McCoy's 5A (modified) medium containing 10% fetal bovine serum. OVCAR3 ovarian cancer cells were cultured in a 1640 medium containing 20% fetal bovine serum and 10 µg/mL bovine insulin. MDA-MB-436 breast cancer cells (natural BRCA1 mutation) and A549 non-small cell lung cancer cells were cultured in a DMEM medium containing 10% fetal bovine serum. Capan-1 human pancreatic cancer cells (natural BRCA2 mutation) were cultured in an IMDM medium containing 20% fetal bovine serum. The cells were all cultured at 37 °C with 5% CO2. Cells at the logarithmic growth phase were available for the experiment.
(§2) 100 µL of the cell medium was added to rows A and H and columns 1 and 12 of a 96-well cell culture plate. Cultured cells were resuspended (adherent cells were digested with trypsin) and counted to give information on cell density and viability. The dilution ratio of the resuspended cells required for inoculating a fixed number of cells into 80 µL of the medium in each culture well was calculated based on the cell density information. After the resuspended cells were diluted with the corresponding medium, 80 µL of the diluted cells were transferred to columns 2-11 of rows B-G of a 96-well cell culture plate using an Eppendorf multi-channel pipette (60 wells in total for each plate). The cell culture plate was incubated overnight in an incubator at 37 °C with 5% CO2.
(§3) The test compound and the combination compound were dissolved in DMSO to give a 10 mM solution for later use. In the experiment, the compound was further diluted to the corresponding concentration according to the concentration designed in the experiment, and based on this concentration, serial gradient dilution was performed. Matrix study was performed at 8 or 7 dose concentrations of the test compound (the lowest dose concentration was 0, and other specific concentration values were shown in FIG. 1) and 7 or 8 dose concentrations of the combination compound (the lowest dose concentration was 0, and other specific concentration values were shown in FIG. 1). 10 µL of each of the diluted combination compound and test compound was added to the corresponding cell plate well, such that the final concentration of DMSO was 0.25%. The test compound and the cells were incubated in an incubator at 37 °C with 5% CO2 for another 7 days, Cell Titer Glo was added at 50 µL/well, and the luminescence value of each well was read using an Envision microplate reader.
(§4) The luminescence value of the well containing only the cell medium was taken as the background (RLUbackground, corresponding cell survival rate to be 0%), the cell well containing only 0.25% DMSO without the compound was taken as the maximum signal (RLUDMSO, corresponding cell survival rate to be 100%), and the luminescence values of the remaining wells containing cells and compounds at different concentrations were taken as RLUsample. The survival rate of each cell well was calculated as follows: Survival rate (%) = (RLUsample−RLUbackground)/(RLUDMSO−RLUbackground) × 100% [formula]
(§5) The interaction between drugs (synergistic, independent, or antagonistic) was statistically analyzed by the Bliss Independence model using Combenefit software (Bliss, C.I., Bacteriol. Rev., 1956, 20, 243-258). The model assumes that each drug acts independently. The theoretical expected action curve of the combination was calculated from the following equation: Bliss effect = effect A + effect B−effect A × effect B [formula] wherein effect A and effect B are the effects of drugs A and B alone at specific concentrations. […]

OVCAR3 = experiment: as above; assay type: cell-based
Method: as §1, §2, §3, §4, §5

NCIH23 = experiment: as above; assay type: cell-based
Method: as §1, §2, §3, §4, §5

[1] = tested on: human breast cancer MDA-MB-436 cells; experiment: Efficacy of combined use with olaparib in MDA-MB-436 xenograft tumor model; assay type: in vivo, NOD-SCID mice; conditions: 30 mg/kg QD intragastric in combination with 10 mg/kg olaparib QD
Description: The anti-tumor activity of the sodium salt of compound I used in combination with olaparib (MCE, 136925) was studied using a MDA-MB-436 subcutaneous tumor model. 24 female NOD-SCID mice (6-7 weeks old, Beijing Vital River Laboratory Animal Technology Co., Ltd.) were subcutaneously inoculated with 1 × 10^7 human breast cancer MDA-MB-436 cells (natural BRCA1 mutation, Nanjing Cobioer). When the tumors grew to 80-120 mm^3, the mice were randomly divided into four groups with six mice per group: a first group treated with vehicle control (QD) by intragastric administration, a second group treated with a 30 mg/kg solution of the sodium salt of compound I (QD) by intragastric administration, a third group treated with a 10 mg/kg olaparib solution (QD) by intragastric administration, and a fourth group treated with a 30 mg/kg solution of the sodium salt of compound I (QD) by intragastric administration and a 10 mg/kg olaparib solution (QD) by intragastric administration. The vehicle of olaparib was a solution containing 10% DMSO, 50% 2-hydroxypropyl-β-cyclodextrin (Aladdin-F2223139, 60% aqueous solution), and 40% water, the vehicle of the sodium salt of compound I was 10% (w/v) Vitamin E TPGS (Hanhong Chemical-BH-GN0100619-22 1101) aqueous solution, and the vehicle of the vehicle control group was a mixture of the vehicle of olaparib and the vehicle of the sodium salt of compound I (mixed at a volume ratio of 1:1). Mice had free access to food and water throughout the experiment.
Tumor diameters were measured twice weekly using a vernier caliper. The tumor volume (V) was calculated using the following formula: V = 0.5a × b^2, wherein a and b represent the long diameter and short diameter of the tumor, respectively.
Mouse body weight was measured twice weekly.
Two way ANOVA was used to compare the differences in tumor growth trend among groups, and a significant difference was considered when p < 0.05.

SKOV3 = experiment: Combined use with combination drug, matrix study, Bliss Independence model (Cell Titer Glo, 7 days); assay type: cell-based, human
Method: as §1, §2, §3, §4, §5

KURAMOCHI = experiment: as above; assay type: cell-based, human
Method: as §1, §2, §3, §4, §5

NCI-H82 = experiment: as above; assay type: cell-based, human; conditions: combination with Etoposide (Topoisomerase II inhibitor)
Method: as §1, §2, §3, §4, §5

Capan-1 = experiment: as above; assay type: cell-based, human
Method: as §1, §2, §3, §4, §5

A2780 = experiment: as above; assay type: cell-based, human
Method: as §1, §2, §3, §4, §5

[2] = combination with Etoposide (Topoisomerase II inhibitor)
[3] = combination with Niraparib (PARP inhibitor)
[4] = combination with Olaparib (PARP inhibitor)
[5] = combination with Talazoparib (PARP inhibitor)
[6] = combination with RP3500 (ATR inhibitor)
[7] = combination with Doxorubicin hydrochloride (Topoisomerase II inhibitor)
[8] = combination with Paclitaxel (Tubulin inhibitor)

COc1ccc(Cl)cc1-c1cc(C)ncc1C(=O)Nc1nc2ncc(-c3ccc(C#N)cc3)nc2s1.[Na] [Sodium salt of compound I, Sodium Salt of 4-(5-Chloro-2-methoxyphenyl)-N-[6-(4-cyanophenyl)thiazolo[4,5-b]pyrazin-2-yl]-6-methylnicotinamide]
Combined effect (A549; combination with Cisplatin (Platinum derivative)): Synergistic
Combined effect (A549; [2]): Synergistic
Combined effect (OVCAR3; combination with Carboplatin (Platinum derivative)): Synergistic
Combined effect (OVCAR3; [3]): Synergistic
Combined effect (OVCAR3; [4]): Synergistic
Combined effect (OVCAR3; [5]): Synergistic
Combined effect (NCIH23; [6]): Synergistic
Combined effect (NCIH23; [5]): Synergistic
anti-tumor effect of combination with olaparib [1]: synergistic anti-tumor effect
tumor volume ([1]; versus either single drug group): significantly lower
safety ([1]; condition of mice, body weight): good safety
Combined effect (SKOV3; [7]): Synergistic
Combined effect (SKOV3; [8]): Synergistic
Combined effect (KURAMOCHI; [7]): Synergistic
Combined effect (KURAMOCHI; [8]): Synergistic
Combined effect (NCI-H82): Synergistic
Combined effect (Capan-1; [3]): Synergistic
Combined effect (Capan-1; [4]): Synergistic
Combined effect (Capan-1; [6]): Synergistic
Combined effect (Capan-1; [5]): Synergistic
Combined effect (A2780; [7]): Synergistic
Combined effect (A2780; [2]): Synergistic
Combined effect (A2780; [8]): Synergistic

— patent EP4744665A1, “COMBINATION OF POLQ INHIBITOR COMPOUND AND ANTI-CANCER THERAPEUTIC AGENT OR RADIOTHERAPY” (Simcere Zaiming Pharmaceutical Co., Ltd., priority 2023, dated 2025)
